The text below walks through data of paper PMC5913603, “Structure–activity relationships of strigolactones via a novel, quantitative in planta bioassay” (Journal of Experimental Botany, 2018).

Series [1] is described as follows: Chemical stability in aqueous solutions, degradation followed by HPLC. It is filed as physicochemical. As to the method:
The compounds were first dissolved in methanol (30%) or acetonitrile (50%) and then diluted to the final concentrations with water. The time-course of degradation was monitored by HPLC using an Agilent Technologies HPLC chromatograph 1200 Series equipped with a photo-diode array (PDA) detector, a binary-gradient high-pressure pump, and an automatic sampler. The column used was a LiChroCART® 125-4 LiChrospher® 100 RP-18 (5 μm, Merck Millipore) maintained at 25 °C. The solvents were (A) water + 0.1% formic acid and (B) acetonitrile, and the flow rate was 0.8 ml min^–1. The initial mobile phase, 95% A / 5% B, was held for 3 min and then ramped linearly to 100% B at 23 min and held for 5 min before resetting to the original conditions. The sample injection volume was 10 μl. PDA detection was by absorbance in the 200–600-nm wavelength range. Peak detection was at the optimum wavelength (254 nm) and peak areas were used for quantification. Initial and subsequent measurements of peak area attributable to the tested compound were used to fit exponential half-life curves and to calculate first-order rate constants. Stability data allowed for calculation of the time in hours for half of the tested compound to be hydrolysed (t1/2).
Natural and synthetic SLs are rather sensitive to hydrolysis at pH 7 and are readily decomposed through the cleavage of the D-ring at pH 9.38 ([Vurro et al., 2016]). Therefore, differences in activity among SL analogues may be attributed to their instability in the aqueous medium. In order to address this point, the stability in aqueous solutions of the newly synthesized SL-D-lactams was tested, and compared to the (+)-GR24 standard ([Kannan and Zwanenburg, 2014]; [Halouzka et al., 2018]). Two different conditions were considered, a 30% solution of MeOH in water and a 1:1 solution of acetonitrile in water. As expected, stability in MeOH was highly compromised for all compounds, but to a greater extent for analogues showing both the Michael acceptor function (enol ether bridge) and an unprotected N in the D-lactam ring, as for rac-3, rac-4, rac-5, and rac-7 (Table 1): after a few hours 50% of the compounds were degraded. This was not surprising from a chemical point of view, as the functional group in SL-D-lactams is an aminal, which is more prone to hydrolysis than the acetal of the natural SL skeleton. […] For rac-5, the NH compound in the EGO10 family, the half-life dropped to 2 h.

Series [2] deals with Phelipanche aegyptiaca seeds. As to the kind of experiment: Germination-inducing activity on parasitic seeds. The series is classed as in vivo. To be noted: for Fold lower potency than rac-GR24 (germination): compared with rac-GR24. As to the method: Seeds of Phelipanche aegyptiaca were collected from field-grown tomato in the West Galilee region of Israel. The seeds were stored in glass vials in the dark at room temperature until their use in germination tests. For the preparation of test solutions, the compound to be tested was weighed out very accurately, dissolved in acetone at 10^–2 M and then diluted with sterile distilled water to the desired concentrations. All solutions were prepared just before use. Seeds were surface-sterilized and preconditioned as described by [Bhattacharya et al. (2009)]. Briefly, after exposure for 5 min to 50% (v/v) aqueous solutions of commercial bleach (2% hypochlorite), seeds were rinsed with sterile distilled water. For preconditioning, seeds were placed on glass fibre filter discs using a sterile toothpick (approximately 50 seeds per disc); the glass fibre discs were placed on two filter paper discs, wetted with sterile distilled water, and incubated at 25 °C in the dark for 6 d. The preconditioned seeds were then allowed to dry completely in a laminar flow cabinet, after which they were treated with each compound at five different concentrations: 10^–5 M, 10^–6 M, 10^–7 M, 10^–8 M, and 10^–9 M. Their germination rate was evaluated under a stereomicroscope 7 d after the beginning of the treatment. For each concentration, at least 250 seeds were scored; synthetic SL rac-GR24 was included as a positive control across the same range of concentrations, while a solution of 0.001% acetone in sterile distilled water was included as a negative control. Seeds were scored as germinated if the radicle protruded through the seed coat 1 week after treatment. Germination values were normalized to those of rac-GR24 at 10^–7 M.
Fig. 3. Germination-inducing activity on Phelipanche aegyptiaca seeds of rac-1–9 and of strigol, ST23b, EGO10, and EDOT at different concentrations, compared to rac-GR24 0.1 μM as a positive control and to acetone as a negative control. […] The x-axis indicates the range of concentrations. Data are means (±SD) of n>250 seeds. Confidence intervals at 95% are used to express errors of the means. The data for rac-1–9 are indicated by ‘D-lactams’.

The mark [3] stands for this setting: aqueous acetonitrile solution in HPLC vials, pH 6.7, 1:1 acetonitrile:water, 21 °C, pH 6.7, extrapolated from plots of peak area versus time, read-out: Half-life (t1/2, h) ACN:Water, 1:1 (converted).
Where [4] appears, read: aqueous methanol solution in HPLC vials, pH 6.7, 30% MeOH in water, 21 °C, pH 6.7, extrapolated from plots of peak area versus time, read-out: Half-life (t1/2, h) 30% MeOH (converted).
[5] abbreviates: aqueous solutions in HPLC vials, summary statement in the discussion, read-out: Half-life time (t1/2), solvent not specified / depending on the solvent.

Read-outs that look alike come from different tables or passages of the source. Some results are limits rather than exact numbers.

In the case of `CC1=C[C@H](O/C=C2/C(=O)O[C@@H]3c4ccccc4C[C@H]23)NC1=O` (racemic) [rac-3], the half-life at 200 μg ml^–1 in series [1] (setting [3]) is 3.8 h; in series [1] (setting [4]), around 3 h; in series [1] (setting [5]), below 4 h. The “Fold lower potency than rac-GR24 (germination)” value in series [2] was ~ 100 fold. In addition, the “Concentration at which high germination activity was shown” value in series [2] (high activity only at this concentration, germination normalized to rac-GR24 0.1 μM) amounted to 10 µM.

For `CC1=C[C@H](O/C=C2/C(=O)O[C@H]3c4ccccc4C[C@@H]23)NC1=O` (racemic) [rac-4], the half-life at 200 μg ml^–1 is 4.4 h in series [1] (setting [3]) and around 3 h in series [1] (setting [4]). Moreover, in series [2] (1 μM), the “Germination efficiency at 1 μM” value is on record as “efficiency comparable to GR24”. Moreover, the “Fold lower potency than rac-GR24 (germination)” value in series [2] was ~ 10 fold. Also, the “Concentration at which some germination activity could still be detected” value in series [2] (tested 10^-9 to 10^-5 M) came to 1 µM.

`CC1=CC(C2Cc3c(n(C)c4ccccc34)C2=O)NC1=O` (racemic) [rac-9]: the half-life at 200 μg ml^–1 is 2900 h in series [1] (setting [3]), 1100 h in series [1] (setting [4]) and 1000 to 3000 h in series [1] (setting [5]). Also, the “Germination activity at 10 μM” value in series [2] (10 μM) is “inactive”.
